From paper PMC4956724, “Assessing the reliability of uptake and elimination kinetics modelling approaches for estimating bioconcentration factors in the freshwater invertebrate, Gammarus pulex” (The Science of the Total Environment, 2016)
Like-named read-outs stand apart in the source and are kept apart here.

Tests used:
G. pulex [1] = settings: in vivo
G. pulex [2] = settings: cited from earlier work
G. pulex exoskeleton = settings: both, Gammarus pulex, in vivo, pH 8.2
Gammarus pulex = test: Toxicokinetic exposure (48 h uptake, 48 h depuration) of radio-labelled pharmaceuticals, first-order one-compartment model (OECD 305); settings: for BCF, Simultaneous BCF: kinetic BCF (k1/k2); for BCF, Simultaneous BCF / k2 (elimination rate constant), Simultaneous BCF / k1 (uptake rate constant), Simultaneous BCF: simultaneous method; for BCF, Sequential BCF a / BCF, Sequential BCF b: kinetic BCF; for BCF, Sequential BCF a / k1, Sequential BCF a / k2, Sequential BCF a: sequential using curve fitting method; for BCF, Sequential BCF b / k1, Sequential BCF b / k2, Sequential BCF b: sequential using linear regression; for k2 (elimination rate constant), Simultaneous BCF / k1 (uptake rate constant), Simultaneous BCF: 1 μg·L^− 1 (diclofenac, ibuprofen 10 μg·L^− 1), 15 °C, pH 8.2
G. pulex [3] = test: Re-examination of raw toxicokinetic data from Ashauer et al. (2010) using the OECD 305 modelling approach; settings: 2010 re-modelled
[4] = Control wells without G. pulex: loss of compound by sorption to the walls of culture plates; type: physicochemical; settings: control wells with exposure media only
G. pulex [5] = system: G. pulex; design: method as in Meredith-Williams et al., 2012; settings: ref Meredith-Williams et al., 2012; cited from earlier work

SMILES | BCF, Sequential BCF (G. pulex [1]; Gammarus pulex) | BCF, Simultaneous BCF (G. pulex [1]; Gammarus pulex) | k1, Sequential BCF (G. pulex [1]; Gammarus pulex) | k1, Simultaneous BCF (G. pulex [1]; Gammarus pulex) | k2, Sequential BCF (G. pulex [1]; Gammarus pulex) | k2, Simultaneous BCF (G. pulex [1]; Gammarus pulex) | BAF (G. pulex [2]; in vivo) | other results
Clc1cccc(Cl)c1Cl [1,2,3-Trichlorobenzene] | 351 L kg^− 1 | 107 L kg^− 1 | 167 L kg^− 1 day^− 1 | 1142 L kg^− 1 day^− 1 | 0.475 day^− 1 | 10.648 day^− 1 | 191 | 
Oc1cc(Cl)c(Cl)cc1Cl [2,4,5-Trichlorophenol] | 8327 L kg^− 1 | 3729 L kg^− 1 | 1091 L kg^− 1 day^− 1 | 941 L kg^− 1 day^− 1 | 0.131 day^− 1 | 0.252 day^− 1 | 2635 | 
Nc1ccc(Cl)cc1Cl [2,4-Dichloroaniline] | 179 L kg^− 1 | 50 L kg^− 1 | 70 L kg^− 1 day^− 1 | 140 L kg^− 1 day^− 1 | 0.392 day^− 1 | 2.830 day^− 1 | 56 | 
Oc1ccc(Cl)cc1Cl [2,4-Dichlorophenol] | 72,728 L kg^− 1 | 9050 L kg^− 1 | 750 L kg^− 1 day^− 1 | 600 L kg^− 1 day^− 1 | 0.010 day^− 1 | 0.066 day^− 1 | 4466 | 
O=[N+]([O-])c1ccc(CCl)cc1 [4-Nitrobenzyl chloride] | 214 L kg^− 1 | 147 L kg^− 1 | 259 L kg^− 1 day^− 1 | 666 L kg^− 1 day^− 1 | 1.212 day^− 1 | 4.540 day^− 1 | 185 | 
CNC(=O)O/N=C/C(C)(C)SC [Aldicarb] | 3 L kg^− 1 | 2 L kg^− 1 | 3 L kg^− 1 day^− 1 | 16 L kg^− 1 day^− 1 | 0.936 day^− 1 | 10.419 day^− 1 | 2 | 
CNC(=O)Oc1cccc2c1OC(C)(C)C2 [Carbofuran] | 72 L kg^− 1 | 68 L kg^− 1 | 10 L kg^− 1 day^− 1 | 10 L kg^− 1 day^− 1 | 0.140 day^− 1 | 0.146 day^− 1 | 65 | 
CCOP(=S)(OCC)Oc1cc(C)nc(C(C)C)n1 [Diazinon] | 101 L kg^− 1 | 77 L kg^− 1 | 161 L kg^− 1 day^− 1 | 276 L kg^− 1 day^− 1 | 1.590 day^− 1 | 3.569 day^− 1 | 82 | 
O=C(O)Cc1ccccc1Nc1c(Cl)cccc1Cl [Diclofenac, diclofenac] |  |  |  |  |  |  |  | Maximum concentration sorbed to exoskeleton (G. pulex exoskeleton): 18%; Mean Compound Mass per Animal (G. pulex exoskeleton): 2070 pg; Total Mass Compound on exoskeleton (G. pulex exoskeleton): 368 (n=4) pg; BCF, Simultaneous BCF (Gammarus pulex): 14 L kg^− 1; BCF, Sequential BCF a (Gammarus pulex): 27 L kg^− 1; BCF, Sequential BCF b (Gammarus pulex): 21 L kg^− 1; k1, Sequential BCF a (Gammarus pulex): 0.253 L kg^− 1 day^− 1; k2, Sequential BCF a (Gammarus pulex): 0.009 day^− 1; k1, Sequential BCF b (Gammarus pulex): 0.269 L kg^− 1 day^− 1; k2, Sequential BCF b (Gammarus pulex): 0.013 day^− 1; k2 (elimination rate constant), Simultaneous BCF (Gammarus pulex): 0.020 day^− 1
C=CC(=O)OCC [Ethylacrylate] |  |  |  |  |  |  |  | BAF (G. pulex [2]; ref Ashauer et al. (2010)): 87; BCF, Sequential BCF (G. pulex [3]; sequential method): 331 L kg^− 1; k1, Sequential BCF (G. pulex [3]; sequential method): 67 L kg^− 1 day^− 1; k2, Sequential BCF (G. pulex [3]; sequential method): 0.204 day^− 1; BCF, Simultaneous BCF (G. pulex [3]; simultaneous method): 69 L kg^− 1; k1, Simultaneous BCF (G. pulex [3]; simultaneous method): 110 L kg^− 1 day^− 1; k2, Simultaneous BCF (G. pulex [3]; simultaneous method): 1.594 day^− 1
COc1ccc(CC(C)NCC(O)c2ccc(O)c(NC=O)c2)cc1 (centres unmarked) [Formoterol, formoterol] |  |  |  |  |  |  |  | BCF, Simultaneous BCF (Gammarus pulex): 14 L kg^− 1; BCF, Sequential BCF a (Gammarus pulex): 18 L kg^− 1; BCF, Sequential BCF b (Gammarus pulex): 33 L kg^− 1; k1, Sequential BCF a (Gammarus pulex): 0.451 L kg^− 1 day^− 1; k2, Sequential BCF a (Gammarus pulex): 0.025 day^− 1; k1, Sequential BCF b (Gammarus pulex): 0.357 L kg^− 1 day^− 1; k2, Sequential BCF b (Gammarus pulex): 0.011 day^− 1; k1 (uptake rate constant), Simultaneous BCF (Gammarus pulex): 0.408 L kg^− 1 day^− 1; k2 (elimination rate constant), Simultaneous BCF (Gammarus pulex): 0.029 day^− 1
Clc1c(Cl)c(Cl)c(Cl)c(Cl)c1Cl [Hexachlorobenzene] | 4160 L kg^− 1 | 2505 L kg^− 1 | 631 L kg^− 1 day^− 1 | 553 L kg^− 1 day^− 1 | 0.152 day^− 1 | 0.221 day^− 1 |  | 
O=[N+]([O-])NC1=NCCN1Cc1ccc(Cl)nc1 [Imidacloprid] | 13 L kg^− 1 | 7 L kg^− 1 | 2 L kg^− 1 day^− 1 | 2 L kg^− 1 day^− 1 | 0.175 day^− 1 | 0.265 day^− 1 | 7 | 
CN(C)CCCN1c2ccccc2CCc2ccccc21 [Imipramine, imipramine] |  |  |  |  |  |  |  | loss by sorption to walls of exposure well ([4]; within 2 h): 27%; loss by sorption to walls of exposure well ([4]; within 48 h): 39%; Maximum concentration sorbed to exoskeleton (G. pulex exoskeleton): 3%; Mean Compound Mass per Animal (G. pulex exoskeleton): 1921 pg; Total Mass Compound on exoskeleton (G. pulex exoskeleton): 50 (n=2) pg; increase in BCF, sequential versus simultaneous method (Gammarus pulex; in vivo): > 10 fold; BCF, Simultaneous BCF (Gammarus pulex): 212 L kg^− 1; BCF, Sequential BCF a (Gammarus pulex): 3811 L kg^− 1; BCF, Sequential BCF b (Gammarus pulex): 4533 L kg^− 1; BCF on average between curve fitting and linear regression approaches (Gammarus pulex; sequential method): ~ 4200; k1, Sequential BCF a (Gammarus pulex): 1.361 L kg^− 1 day^− 1; k1, Sequential BCF b (Gammarus pulex): 1.360 L kg^− 1 day^− 1; k1 (uptake rate constant), Simultaneous BCF (Gammarus pulex): 1.408 L kg^− 1 day^− 1; k2 (elimination rate constant), Simultaneous BCF (Gammarus pulex): 0.007 day^− 1
CCOC(=O)CC(SP(=S)(OC)OC)C(=O)OCC (centres unmarked) [Malathion] | 212 L kg^− 1 | 120 L kg^− 1 | 80 L kg^− 1 day^− 1 | 86 L kg^− 1 day^− 1 | 0.378 day^− 1 | 0.721 day^− 1 | 114 | 
COCCc1ccc(OCC(O)CNC(C)C)cc1 (centres unmarked) [Metoprolol, metoprolol] |  |  |  |  |  |  |  | Mean Compound Mass per Animal (G. pulex exoskeleton): 74 pg; Total Mass Compound on exoskeleton (G. pulex exoskeleton): 14 (n=2) pg
CC(C)NCC(O)COc1cccc2ccccc12 (centres unmarked) [Propranolol, propranolol] |  |  |  |  |  |  |  | Mean Compound Mass per Animal (G. pulex exoskeleton): 336 pg; Total Mass Compound on exoskeleton (G. pulex exoskeleton): 44 (n=1) pg
CNC(=C[N+](=O)[O-])NCCSCc1ccc(CN(C)C)o1 [Ranitidine, ranitidine] |  |  |  |  |  |  |  | Mean Compound Mass per Animal (G. pulex exoskeleton): 238 pg; Total Mass Compound on exoskeleton (G. pulex exoskeleton): 58 (n=1) pg
CCCCCCCCn1sc(Cl)c(Cl)c1=O [Sea nine] |  |  |  |  |  |  | 1732 | BCF, Sequential BCF (G. pulex [1]): 7696 L kg^− 1; BCF, Simultaneous BCF (G. pulex [1]): 2491 L kg^− 1; k1, Sequential BCF (G. pulex [1]): 950 L kg^− 1 day^− 1; k1, Simultaneous BCF (G. pulex [1]): 755 L kg^− 1 day^− 1; k2, Sequential BCF (G. pulex [1]): 0.123 day^− 1; k2, Simultaneous BCF (G. pulex [1]): 0.303 day^− 1
CC(C)(C)NCC(O)c1cc(O)cc(O)c1 (centres unmarked) [Terbutaline, terbutaline] |  |  |  |  |  |  |  | BCF, Simultaneous BCF (Gammarus pulex): 12 L kg^− 1; BCF, Sequential BCF a (Gammarus pulex): 22 L kg^− 1; BCF, Sequential BCF b (Gammarus pulex): 19 L kg^− 1; k1, Sequential BCF a (Gammarus pulex): 0.135 L kg^− 1 day^− 1; k2, Sequential BCF a (Gammarus pulex): 0.006 day^− 1; k1, Sequential BCF b (Gammarus pulex): 0.117 L kg^− 1 day^− 1; k2, Sequential BCF b (Gammarus pulex): 0.006 day^− 1; k1 (uptake rate constant), Simultaneous BCF (Gammarus pulex): 0.136 L kg^− 1 day^− 1; k2 (elimination rate constant), Simultaneous BCF (Gammarus pulex): 0.011 day^− 1
CNCCC(Oc1ccc(C(F)(F)F)cc1)c1ccccc1 (centres unmarked) [fluoxetine] |  |  |  |  |  |  |  | BCF (G. pulex [5]): 185,900
